US12264142B2, “Heterocyclic compounds” (FLORATEK PHARMA SA, priority 2019, dated 2025)
Entries after “also recorded” stand apart in the source; their conditions may differ.

What was measured:
[1] = test system: KEGG pathways; assay: KEGG pathway mapping of differentially-expressed genes; type: in vivo, C. elegans
From the text: To determine which among recognized aging-related pathways were most likely modulated by treatment with the SND303 compound, and to estimate their relative contributions, two approaches were undertaken. In one approach, the genes differentially expressed after treatment were mapped to pathways in the KEGG database, a curated knowledgebase of biological pathways. This placed the transcriptomic data within the context of well-characterized biological pathways, particularly several related to longevity.
Several of these genes matched to the canonical longevity pathways as curated in KEGG (FIG. 5). […] At Day 10, however, many more pathways were represented among differentially-expressed genes and each individual pathway was more richly populated with differentially-expressed genes. The most prominent increase was in the expression of genes involved in Oxidative Phosphorylation, possibly indicating maintenance of mitochondrial function. In addition, several components of the canonical Longevity Regulating Pathway are represented. With closer examination of these the differential expression of the gene encoding Target of Rapamycin (TOR) is notable. When the TOR pathways itself was expanded, several more differentially-expressed genes were represented that were not explicitly indicated in the Longevity Regulating Pathway. Applying this process with the other pathways and modules linked to the Longevity Regulating Pathway, a coherent hypothetical pathway of action emerges.

[2] = test system: aging-related pathways; assay: Pathway transcriptional profile score analysis; type: in vivo, C. elegans
From the text: In the second approach, the transcriptomic profile of worms treated with SND303 compound was compared with published transcriptomes in which specific aging-related pathways have been manipulated. In contrast with the first approach, this blindly scores how the data fits with published transcriptomic signatures of aging.
Frequently cited and relevant studies analyzing the transcriptomic signatures of aging-related pathways in C. elegans were selected for this analysis. […] To generate a transcriptional profile score, the log fold change for each key gene in each pair of comparison (e.g. SND303 vs. negative control) is multiplied by a direction-specific factor and assigned a positive or negative value based on whether the change is in the same direction as reported in the literature. All the gene scores for a given pathway are summed up to produce one aggregated score per pathway for each pair of comparison.

[3] = test system: C. elegans; conditions: Ryu et al 2016; cited from earlier work
[4] = test system: N2 wild type strain of worms; assay: C. elegans life span (survival) assay, manual scoring (SND301); type: in vivo
Protocol: The survival assay was conducted in the presence of 50 μM SND301 with measurements of live, dead, and censored worms at time points every 2-3 days from the start of adulthood.
Thioflavin T was used in the assay as a positive control [Gamir-Morralla A et al, 2019, “Effects of Thioflavin T and GSK-3 Inhibition on Lifespan and Motility in a Caenorhabditis elegans Model of Tauopathy”, J Alzheimers Dis Rep., 3(1): 47-57]. Vehicle 25% and 1% DMSO were used as controls and represent the vehicles in which compounds and bacteria or bacteria alone respectively were resuspended. The final DMSO concentration in the agar plates was 0.5% and 0.02% respectively.
5 mM DMSO stock solutions for each compound were prepared in high-grade DMSO. Stocks were protected from light and stored in glass vials at 21° C. in a temperature-controlled room (to avoid freeze/thaw of DMSO). A fresh stock was prepared at the start of each experiment and stored for <1 week.
The lifespan assay was designed and performed according to published and validated methods with modifications for chemical treatment [Amrit F R G et al, 2014, “The C. elegans lifespan assay toolkit”, METHODS 68, 465-475; Leukanic, et. Al, “Manual Lifespan Assay Standard Operating Procedure”, Caenorhabditis Intervention Testing Program, https://figshare.com/articles/7_CITP_SOP_Manual_Lifespan_Assay/9738197/1]. Plates were seeded with compound dissolved in 25% DMSO and bacteria. The DMSO diffused through the agar to reach a final concentration of 0.5%. Synchronized day 1 adult worms were transferred to seeded plates containing compound and allowed to lay eggs for 2 hours (Day 0, “hatchoff”). The young adults were then removed, and the eggs were incubated at 20° C. until they had reached the young adult stage (day 3). 200 young adult worms per treatment were transferred to 8 fresh seeded 35 mm dishes with compound and 50 μM 5-Fluorodeoxyuridine to suppress progeny. […] Worms that were missing, stuck to the dish, burrowed, injured, or exploded were scored as censored and removed from the plate. To maintain chemical exposure at the experimental concentrations, worms were transferred every other scoring day to new seeded plates with compound.

[5] = Day 10, against negative control
[6] = end of the study, SND301 and Urolithin A 50 μM

CC(C)NC(=O)Oc1ccc2c(c1)oc(=O)c1cc(OC(=O)NC(C)C)ccc12 [SND303]
cel00980 Metabolism of xenobiotics by cytochrome P450: differentially-expressed genes ([1]; Day 3): gst-4; Glutathione S-transferase 4; also recorded: sodh-1; Alcohol dehydrogenase 1; also recorded: gst-5; Probable glutathione S-transferase 5
cel04212 Longevity regulating pathway: differentially-expressed genes ([1]; Day 3): gst-4; Glutathione S-transferase 4; also recorded: gst-5; Probable glutathione S-transferase 5; also recorded: ctl-2; Peroxisomal catalase 1
cel00190 Oxidative phosphorylation: differentially-expressed genes ([1]; Day 10): 15 genes
cel03040 Spliceosome: differentially-expressed genes ([1]; Day 10): 10 genes
cel03050 Proteasome: differentially-expressed genes ([1]; Day 10): 11 genes
cel04010 MARK signaling pathway: differentially-expressed genes ([1]; Day 10): mtk-1; Protein kinase domain-containing protein; also recorded: fln-2; FiLamiN (actin binding protein) homolog; also recorded: nsy-1; Mitogen-activated protein; also recorded: mnk-1; MAP kinase-interacting; also recorded: pxf-1; Rap guanine nucleotide exchange factor; also recorded: ced-2; Cell death abnormality protein 2; also recorded: daf-2; Insulin-like receptor subunit beta
cel04120 Ubiquitin mediated proteolysis: differentially-expressed genes ([1]; Day 10): 6 genes
cel04140 Autophagy: differentially-expressed genes ([1]; Day 10): let-363; Target of rapamycin homolog; also recorded: daf-15; Raptor_N domain-containing protein; also recorded: pek-1; Eukaryotic translation initiation; also recorded: atg-2; Autophagy-related protein 2; also recorded: cpl-1; Cathepsin L-like; also recorded: epg-7; ATG11 domain-containing protein; also recorded: ragc-1; RAs-related GTP binding; also recorded: unc-51; Serine/threonine-protein kinase unc-51
cel04141 Protein processing in endoplasmic reticulum: differentially-expressed genes ([1]; Day 10): pdi-2; Protein disulfide-isomerase 2; also recorded: cup-2; Derlin-1; also recorded: skr-2; SKp1 Related (ubiquitin ligase; also recorded: pek-1; Eukaryotic translation initiation; also recorded: uggt-1; UDP-Glucose Glycoprotein; also recorded: nsy-1; Mitogen-activated protein kinase; also recorded: rbx-1; RING-box protein 1; also recorded: Protein transport protein Sec61 subunit gamma
cel04150 mTOR signaling pathway: differentially-expressed genes ([1]; Day 10): let-363; Target of rapamycin homolog; also recorded: daf-15; Raptor_N domain-containing protein; also recorded: rict-1; RICTOR_V domain-containing protein; also recorded: T08A11.1; DEP domain-containing protein; also recorded: ragc-1; RAs-related GTP binding; also recorded: Y32H12A.8; WD_Repeats domain-containing; also recorded: daf-2; Insulin-like receptor subunit beta; also recorded: unc-51; Serine/threonine-protein kinase unc-51
cel04212 Longevity regulating pathway-worm: differentially-expressed genes ([1]; Day 10): let-363; Target of rapamycin homolog; also recorded: sod-2; Superoxide dismutase [Mn] 1, mitochondrial; also recorded: gst-7; Probable glutathione S-transferase 7; also recorded: fat-6; Delta(9)-fatty-acid desaturase fat-6; also recorded: daf-2; insulin-like receptor subunit beta; also recorded: unc-51; Serine/threonine-protein kinase unc-51
cel04361 Axon regeneration: differentially-expressed genes ([1]; Day 10): 7 genes
Transcriptional profile score, overall ([2]; Day 3, against negative control): little deviation from the control
Transcriptional profile score, Oxidative stress response [2, 5]: strong negative score
Transcriptional profile score, overall [2, 5]: greatest overall profile contrast with control

O=c1oc2cc(O)ccc2c2ccc(O)cc12 [Urolithin A, reference compound]
Effect on lifespan [3]: extended lifespan
Death events ([4]; Table 1A, at a certain point during the study, N2, SND301 and Urolithin A 50 μM): 47
% Complete ([4]; Table 1A, deaths attributed to aging from total worm population, at a certain point during the study, N2): 25.7%
Death events ([4]; Table 1B, end of the study, SND301 and Urolithin A 50 μM): 178
Maximum life span [4, 6]: 35 days
Median lifespan [4, 6]: 21 days
